Laboratory results published in patent US4163799A, “Psychostimulant compounds” (Union Chimique Continentale U.C.C., priority 1975, dated 1979).
Where a name gives a salt, the structure may show the parent alone.

Columns and labels:
[1] = Hot plate test with the mouse; type: in vivo, mouse (male, Swiss NMRI)
Method: (§1) All the experiments described below were carried out on male rats weighing between 170 and 220 g (Wistar AF strain) and male mice weighing between 18 and 23 g (Swiss NMRI strain), unless indicated to the contrary. All the experiments were conducted in a constant-temperature laboratory (22±1° C.). […] Unless indicated to the contrary 10 animals per batch were always used.
This test was used to measure the reaction time of the animals to a painful stimulus. Ten animals were used per point. Fifteen minutes after oral administration of NaAHDH (32 mg/kg) the reaction time (licking of front paws) of the mice exposed to the hot plate was 5.8 seconds while that of the controls was 7.3 seconds (significant difference at the 0.05 threshold).

[2] = Motor activity in the mouse (photoelectric cell actimeter); type: in vivo, mouse (male, Swiss NMRI)
Method: as §1
The motor activity was determined with the aid of photoelectric cell actimeters (Boissier and Simon, Arch. int. Pharmacodyn. 1965, 158, 212-221). Twelve animals per batch were always used as a minimum.

[3] = Antioxotremorine activity test; type: in vivo, mouse (male, Swiss NMRI); conditions: 8, 16, 32 mg/kg orally or ip; oxotremorine 0.5 mg/kg IP
Method: as §1
In mice which received doses of 8, 16, and 32 mg/kg of NaAHDH orally or intraperitoneally the effects of oxotremorine (0.5 mg/kg IP) were unchanged, in terms of hyperthermia, trembling, lacrimation, hypersalivation, and defecation.

[4] = Conditioned-inhibition test (four-plate test); type: in vivo, mouse (male, Swiss NMRI); conditions: 4, 8, 16, 32 and 64 mg/kg
Method: as §1
A simple conditioned-inhibition test was used, namely the four-plate test (Neuropharmacology, Aron et al, 1971, 10, 459-470).

[5] = Observation of animals, rat; type: in vivo, rat (male, Wistar AF)
Method: as §1

[6] = Antireserpine activity test, mouse; type: in vivo, mouse (male, Swiss NMRI); conditions: 8, 16, 32 mg/kg orally, reserpine 2.5 mg/kg IP 4 hours before
Method: as §1

[7] = test system: monoaminoxidase; assay: Inhibitory effect of monoaminoxidase (tryptamine test); type: in vivo, rat (male, Wistar AF); conditions: 16 and 64 mg/kg orally; tryptamine 3 mg/kg IV
Method: as §1

[8] = Perforated board test; type: in vivo
Method: as §1
The technique and apparatus described by Boissier and Simon (Physiol. Behav. 1967, 2, 444-448) were used. In these experiments 15 animals per group were used (except for 30 for the controls and 30 for the 32 mg/kg dose).

[9] = Stereotypy test with amphetamine; type: in vivo, rat (male, Wistar AF); conditions: 32 or 64 mg/kg orally 60 minutes before amphetamine 2 mg/kg IP
Method: as §1

[10] = Antihypnotic effect / pentobarbital antagonism (conclusion); type: in vivo
[11] = Interaction with convulsants: cardiazol; type: in vivo; conditions: 64 mg/kg orally 30 minutes before cardiazol 160 mg/kg SC
Method: as §1

[12] = Avoidance conditioning, two-compartment shuttle-box; type: in vivo, rat (male, Wistar AF); conditions: 16 and 64 mg/kg orally, previously trained rats
Method: as §1
This avoidance conditioning in the rat placed in a two-compartment shuttle-box described by Boissier and Simon (Therapie 1968, 23, 1267-1276) was studied.

[13] = Overall activity and wakefulness profile (conclusion of the study); type: in vivo, rat and mouse
[14] = Modification of hypnotic effects (pentobarbital), rat; type: in vivo, rat (male, Wistar AF); conditions: 16, 32, 64 mg/kg orally, with or 60 minutes before pentobarbital
Method: as §1

[15] = Observation of animals, mouse; type: in vivo, mouse (male, Swiss NMRI)
Method: as §1

[16] = Antireserpine activity test, rat; type: in vivo, rat (male, Wistar AF); conditions: 8, 16, 32 mg/kg orally, reserpine 2.5 mg/kg IP 4 hours before
Method: as §1

[17] = Modification of hypnotic effects (pentobarbital), mouse; type: in vivo, mouse (male, Swiss NMRI); conditions: 16, 32, 64 mg/kg orally, with or 60 minutes before pentobarbital
Method: as §1

[18] = Interaction with convulsants: electric shock; type: in vivo, mouse (male, Swiss NMRI); conditions: 4, 16, 64 mg/kg orally 60 minutes before electric shock
Method: as §1

[19] = 64 mg/kg IP, ** significant at 0.005
[20] = doses less than toxic, beginning with 4 mg/kg orally or ip
[21] = doses less than toxic, from 4 mg/kg orally or ip
[22] = doses very close to the lethal doses
[23] = only at doses very close to the lethal doses
[24] = 8 mg/kg orally 60 min before test
[25] = 16 mg/kg orally 60 min before test
[26] = 32 mg/kg orally 60 min before test
[27] = 64 mg/kg orally 60 min before test

## CC(O)CC(c1ccccc1)C(C(=O)O)c1ccccc1 (centres unmarked) [NaAHDH, Sodium Salt of 5-Hydroxy-2,3-Diphenyl-Hexanoic Acid]
[1]; 32 mg/kg, with morphine
  effects of an analgesic dose of morphine on hot plate test: did not increase or decrease the effects of an analgesic dose of morphine
[1]; 15 min after 32 mg/kg orally, controls 7.3 seconds, significant at 0.05
  reaction time (licking of front paws): 5.8 s
[2]; 16 mg/kg IP
  number of beams interrupted, 30 + 5 min: 44
  number of beams interrupted, 30 + 10 min: 90
  number of beams interrupted, 30 + 15 min: 133
  number of beams interrupted, 30 + 20 min: 163
  number of beams interrupted, 30 + 25 min: 195
  number of beams interrupted, 30 min: 376 ± 31
[2]; 16 mg/kg IP, * significant at 0.05
  number of beams interrupted, 30 + 30 min: 214 ± 28
[2]; 32 mg/kg IP
  number of beams interrupted, 30 + 5 min: 65
  number of beams interrupted, 30 + 10 min: 118
  number of beams interrupted, 30 + 15 min: 183
  number of beams interrupted, 30 + 20 min: 242
  number of beams interrupted, 30 + 25 min: 285
  number of beams interrupted, 30 min: 450 ± 39
[2]; 32 mg/kg IP, test t 2,395
  number of beams interrupted, 30 + 30 min: 325 ± 26
[2]; 64 mg/kg IP
  number of beams interrupted, 30 + 5 min: 90
  number of beams interrupted, 30 + 10 min: 195
  number of beams interrupted, 30 + 15 min: 297
  number of beams interrupted, 30 + 20 min: 396
  number of beams interrupted, 30 + 25 min: 429
[2]; [19]
  number of beams interrupted, 30 + 30 min: 558 ± 56
  number of beams interrupted, 30 min: 580 ± 47
[2]; 32 and 64 mg/kg ip, significant for the first 30 minutes, regular and constant up to 60th minute
  motor activity: increase in motor activity
[3]
  effects of oxotremorine (hyperthermia, trembling, lacrimation, hypersalivation, defecation): unchanged
[4]
  animals' performance in four-plate test: slight in increase in the animals' performance
  modification of conditioned inhibition: no modification of conditioned inhibition
[5]
  sexual behavior: increase of sexual behavior
[5]; [20]
  excitation, reactivity to touch and sound stimuli: slight excitation was observed with enhanced reactivity to touch and sound stimuli
[5]; [21]
  diameter of the pupil: no change was observed in the diameter of the pupil
  hyperthermia: slight hyperthermia
  motor coordination, abnormal or stereotyped movements: not accompanied by lack of motor coordination or abnormal or stereotyped movements
[5]; [22]
  hyperthermia: about 2 °C
[5]; [23]
  toxic signs: trembling, hyperreactivity to very intense stimuli, interaggressivity, and convulsive phenomena extending to the rear paws
[6]
  modification of hyperthermia or drooping eyelid induced by reserpine: no modification of hyperthermia or drooping eyelid induced by reserpine
[7]
  potentialization of effects of infra-convulsant dose of tryptamine: no potentialization of the effects of an infra-convulsant dose of tryptamine
[8]; [24]
  holes explored in 5 min: 101 percentage of controls
  movements made in 5 min: 102 percentage of controls
[8]; [25]
  holes explored in 5 min: 121 percentage of controls
  movements made in 5 min: 116 percentage of controls
[8]; [26]
  holes explored in 5 min: 140 percentage of controls
  movements made in 5 min: 159 percentage of controls
[8]; [27]
  holes explored in 5 min: 143 percentage of controls
  movements made in 5 min: 150 percentage of controls
[8]; orally
  movements: clear increase in movements
[8]; orally, significant from 16 mg/kg upward
  holes explored: large increase in the holes explored
[8]; po, orally, read-out: dose from which increase in holes explored is significant
  minimal effective dose: ≥ 16 mg/kg
[9]
  modification of amphetamine stereotyped movements: no modification in stereotyped movements
[10]; at clearly stimulating doses
  pentobarbital antagonism: no pentobarbital antagonism
[10]; compared with caffeine
  antihypnotic effect: no antihypnotic effect
[11]
  latency of convulsions: no decrease in the latency of convulsions
[12]
  change in avoidance conditioning: no change in the conditioning
[13]; by contrast to nooanaleptics
  signs of sympathetic excitation: no signs of sympathetic excitation
[13]; orally, after administration
  persistence of increase in activity and wakefulness: about 2 hours
[14]
  time taken to fall asleep or length of sleep: no modification to the time taken to fall asleep or the length of sleep
[15]; [20]
  excitation, reactivity to touch and sound stimuli: slight excitation was observed with enhanced reactivity to touch and sound stimuli
[15]; [21]
  diameter of the pupil: no change was observed in the diameter of the pupil
  hyperthermia: slight hyperthermia
  motor coordination, abnormal or stereotyped movements: not accompanied by lack of motor coordination or abnormal or stereotyped movements
[15]; [22]
  hyperthermia: about 2 °C
[15]; [23]
  toxic signs: trembling, hyperreactivity to very intense stimuli, interaggressivity, and convulsive phenomena extending to the rear paws
[16]
  modification of hyperthermia or drooping eyelid induced by reserpine: no modification of hyperthermia or drooping eyelid induced by reserpine
[17]
  time taken to fall asleep or length of sleep: no modification to the time taken to fall asleep or the length of sleep
[18]
  duration or appearance of the convulsions: modified neither the duration nor appearance of the convulsions
  motility after the convulsion: no increase in motility after the convulsion
